Measurements as given in patent US8569267B2, “Tetracyclic tetrahydrofuran derivatives containing cyclic amine side chain” (Janssen Pharmaceutica, NV, priority 2005, dated 2013).

Assays:
[1] = target: T1, human cloned 5-HT2A receptor, expressed in L929 cells (Homo sapiens, UniProt P28223); assay: In vitro binding affinity for 5-HT2A receptor ([125I]R91150 radioligand binding); settings: human cloned 5-HT2A receptor in L929 cells, [125I]R91150; for IC50: read-out: 5-HT2A pIC50 (converted)
T1 construct: expressed in transfected cells; host or cells: L929 cells
Protocol: (§1) In Vitro Binding Affinity for 5-HT2A and 5-HT2C Receptors
(§2) The interaction of the compounds of Formula (I) with 5-HT2A and 5-HT2C receptors was assessed in in vitro radioligand binding experiments. […] During the incubation, the radioligands bind to the receptor. When equilibrium of binding is reached, the receptor bound radioactivity is separated from the non-bound radioactivity, and the receptor bound activity is counted. The interaction of the test compounds with the receptors is assessed in competition binding experiments. Various concentrations of the test compound are added to the incubation mixture containing the tissue preparation and the radioligand. Binding of the radioligand will be inhibited by the test compound in proportion to its binding affinity and its concentration. The affinities of the compounds for the 5-HT2 receptors were measured by means of radioligand binding studies conducted with: (a) human cloned 5-HT2A receptor, expressed in L929 cells using [^125I]R91150 as radioligand and (b) human cloned 5-HT2C receptor, expressed in CHO cells using [^3H]mesulergine as radioligand.

[2] = target: T2, human cloned 5-HT2C receptor, expressed in CHO cells (Homo sapiens, UniProt P28335); assay: In vitro binding affinity for 5-HT2C receptor ([3H]mesulergine radioligand binding); settings: human cloned 5-HT2C receptor; for IC50: read-out: 5-HT2C pIC50 (converted)
T2 construct: expressed in transfected cells; host or cells: CHO cells
T2 sequence (P28335 33-458): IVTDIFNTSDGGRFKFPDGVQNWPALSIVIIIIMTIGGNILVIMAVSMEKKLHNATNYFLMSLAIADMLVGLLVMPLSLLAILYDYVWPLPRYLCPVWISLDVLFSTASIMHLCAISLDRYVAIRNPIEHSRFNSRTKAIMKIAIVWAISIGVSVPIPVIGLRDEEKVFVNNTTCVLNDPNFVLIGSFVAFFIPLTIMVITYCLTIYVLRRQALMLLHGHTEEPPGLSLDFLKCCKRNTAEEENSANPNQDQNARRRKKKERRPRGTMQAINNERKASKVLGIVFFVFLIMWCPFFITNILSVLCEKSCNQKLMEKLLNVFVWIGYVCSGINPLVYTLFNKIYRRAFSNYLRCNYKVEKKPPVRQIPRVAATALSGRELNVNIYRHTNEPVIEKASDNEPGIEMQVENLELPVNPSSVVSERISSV
Protocol: as §1
as §2, with “concentration.” for “concentration. The affinities of the compounds for the 5-HT2 receptors were measured by means of radioligand binding studies conducted with: (a) human cloned 5-HT2A receptor, expressed in L929 cells using [^125I]R91150 as radioligand and (b) human cloned 5-HT2C receptor, expressed in CHO cells using [^3H]mesulergine as radioligand.”

[3] = target: T3, human Dopamine D2L receptor (Homo sapiens, UniProt P14416); assay: In vitro binding affinity for human D2L receptor ([3H]Spiperone binding); settings: human D2L receptor-transfected CHO cell membranes; for IC50: read-out: D2L pIC50 (converted)
T3 construct: expressed in transfected cells; host or cells: CHO cells
Protocol: In Vitro Binding Affinity for Human D2L Receptor
Frozen membranes of human Dopamine D2L receptor-transfected CHO cells were thawed, briefly homogenised using an Ultra-Turrax T25 homogeniser and diluted in Tris-HCl assay buffer containing NaCl, CaCl2, MgCl2, KCl (50, 120, 2, 1, and 5 mM respectively, adjusted to pH 7.7 with HCl) to an appropriate protein concentration optimised for specific and non-specific binding. Radioligand [^3H]Spiperone (NEN, specific activity ˜70 Ci/mmol) was diluted in assay buffer at a concentration of 2 nmol/L. Prepared radioligand (50 μl), along with 50 μl of either the 10% DMSO control, Butaclamol (10^−6 mol/l final concentration), or compound of interest, was then incubated (30 min, 37° C.) with 400 μl of the prepared membrane solution. Membrane-bound activity was filtered through a Packard Filtermate harvester onto GF/B Unifilterplates and washed with ice-cold Tris-HCl buffer (50 mM; pH 7.7; 6×0.5 ml). Filters were allowed to dry before adding scintillation fluid and counting in a Topcount scintillation counter. Percentage specific bound and competition binding curves were calculated using S-Plus software (Insightful).

[4] = target: T4, NET (norepinephrine transporter) (Rattus norvegicus, UniProt Q63380); assay: In vitro determination of NET reuptake inhibition ([3H]Nixosetine binding, rat brain cortex); settings: rat brain cortex; for IC50: read-out: NET pIC50 (converted)
T4 construct: Cortex from rat brain was collected and homogenised; from tissue; host or cells: rat brain cortex
Protocol: In Vitro Determination of NET Reuptake Inhibition
Cortex from rat brain was collected and homogenised using an Ultra-Turrax T25 and a Dual homogeniser in ice-cold homogenising buffer containing Tris, NaCl and KCl (50 mM, 120 mM and 5 mM, respectively, pH 7.4) prior to dilution to an appropriate protein concentration optimised for specific and non-specific binding. […] Membrane-bound activity was detected by filtration through a Packard Filtermate harvester onto GF/B Unifilterplates, washed with ice-cold Tris-HCl buffer, containing NaCl and KCl (50 mM, 120 mM and 4 mM; pH 7.4; 6×0.5 ml). Filters were allowed to dry for 24 h before adding scintillation fluid. Scintillation fluid was allowed to saturate filters for 24 h before counting in a Topcount scintillation counter. Percentage specific bound and competition binding curves were calculated using S-Plus software (Insightful).

T4 sequence (Q63380 1-617): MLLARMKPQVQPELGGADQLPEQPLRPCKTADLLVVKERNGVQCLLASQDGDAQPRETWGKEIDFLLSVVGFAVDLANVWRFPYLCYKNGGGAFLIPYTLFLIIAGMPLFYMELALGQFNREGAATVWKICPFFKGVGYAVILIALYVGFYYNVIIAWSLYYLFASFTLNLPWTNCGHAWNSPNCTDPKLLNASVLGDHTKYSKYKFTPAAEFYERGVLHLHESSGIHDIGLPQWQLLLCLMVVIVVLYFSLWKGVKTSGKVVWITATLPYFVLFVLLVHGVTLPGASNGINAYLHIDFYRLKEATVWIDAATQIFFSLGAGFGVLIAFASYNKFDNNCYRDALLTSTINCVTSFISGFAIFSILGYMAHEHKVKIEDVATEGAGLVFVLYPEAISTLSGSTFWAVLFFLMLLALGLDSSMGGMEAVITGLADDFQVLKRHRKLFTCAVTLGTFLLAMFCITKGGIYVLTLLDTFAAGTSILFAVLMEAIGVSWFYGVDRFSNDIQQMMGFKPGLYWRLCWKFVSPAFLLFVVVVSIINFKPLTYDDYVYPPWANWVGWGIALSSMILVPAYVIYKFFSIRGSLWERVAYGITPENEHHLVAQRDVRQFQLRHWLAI
T1 sequence (P28223 whole entry): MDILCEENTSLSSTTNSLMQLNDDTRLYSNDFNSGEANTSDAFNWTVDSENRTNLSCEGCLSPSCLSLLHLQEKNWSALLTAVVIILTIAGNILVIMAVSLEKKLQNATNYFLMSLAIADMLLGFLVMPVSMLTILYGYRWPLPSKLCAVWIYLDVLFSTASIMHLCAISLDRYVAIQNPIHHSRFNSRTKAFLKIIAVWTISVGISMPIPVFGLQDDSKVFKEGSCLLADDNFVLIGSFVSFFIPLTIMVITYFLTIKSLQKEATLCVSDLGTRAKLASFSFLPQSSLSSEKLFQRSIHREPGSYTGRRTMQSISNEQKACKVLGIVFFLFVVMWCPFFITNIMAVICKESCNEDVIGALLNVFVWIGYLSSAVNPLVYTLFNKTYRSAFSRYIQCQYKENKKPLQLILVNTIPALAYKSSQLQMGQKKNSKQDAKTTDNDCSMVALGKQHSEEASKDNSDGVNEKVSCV
T3 sequence (P14416 whole entry): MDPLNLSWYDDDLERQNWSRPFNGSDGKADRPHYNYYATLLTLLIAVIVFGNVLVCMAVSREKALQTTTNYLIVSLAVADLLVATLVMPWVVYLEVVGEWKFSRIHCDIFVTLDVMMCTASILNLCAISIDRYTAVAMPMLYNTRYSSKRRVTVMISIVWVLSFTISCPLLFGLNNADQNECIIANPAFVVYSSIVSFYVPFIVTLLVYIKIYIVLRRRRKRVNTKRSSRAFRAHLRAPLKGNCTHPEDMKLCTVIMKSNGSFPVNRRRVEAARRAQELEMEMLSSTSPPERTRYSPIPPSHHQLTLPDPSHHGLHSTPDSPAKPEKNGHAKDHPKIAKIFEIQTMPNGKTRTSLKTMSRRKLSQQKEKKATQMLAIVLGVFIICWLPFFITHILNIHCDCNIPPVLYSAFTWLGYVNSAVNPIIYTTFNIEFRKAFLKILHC

SMILES | IC50 [1] | IC50 [2] | IC50 [3] | IC50 [4] | 5-HT2A pIC50 [1] | 5-HT2C pIC50 [2] | D2L pIC50 [3] | NET pIC50 [4]
Fc1ccc2c(c1)C1OC(CN3CCN(C(=S)Nc4ccccc4)CC3)CC1c1ccccc1C2 (stereo not shown) [Compound 115] | 7.41 nM | 22.4 nM | 112 nM | 0.49 µM |  |  |  | 
COCC(=O)N1CCN(CC2CC3c4ccccc4Cc4ccc(F)cc4C3O2)CC1 (stereo not shown) [Compound 77] | 3.09 nM | 13.2 nM | 33.9 nM | 3.63 µM |  |  |  | 
COc1ccc(OC2CCN(CC3CC4c5ccccc5Cc5ccc(F)cc5C4O3)C2)cc1 (mixture of isomers) [Compound 33] | 6.17 nM | 2 nM | 7.94 nM | 4.9 µM |  |  |  | 
COC1CCN(C[C@H]2C[C@@H]3c4ccccc4Cc4ccc(F)cc4[C@@H]3O2)C1 (stereo partly shown) [Compound 4] | < 10 nM | 2.09 nM | 16.2 nM | 5.89 µM |  |  |  | 
O=C(O)C(=O)O.OCCN1CCCN(C[C@H]2C[C@@H]3c4ccccc4Cc4ccc(F)cc4[C@@H]3O2)CC1 [Compound 269] |  |  |  |  | 8.25 | 8.14 | 7.83 | 5.15
N#CCC1CCN(CC2CC3c4ccccc4Cc4ccc(F)cc4C3O2)CC1 (stereo not shown) [Compound 168] | 3.89 nM | 9.33 nM | 2.82 nM | > 10 µM |  |  |  | 
Fc1ccc(OC2CCN(CC3CC4c5ccccc5Cc5ccc(F)cc5C4O3)C2)cc1 (mixture of isomers) [Compound 36] | 12.3 nM | 4.68 nM | 21.9 nM | 4.07 µM |  |  |  | 
O=C(OC1CCN(CC2CC3c4ccccc4Cc4ccc(F)cc4C3O2)C1)C1CCCC1 (mixture of isomers) [Compound 14] | 4.17 nM | 3.31 nM | 3.89 nM | 1.23 µM |  |  |  | 
COc1ccccc1N1CCN(C(=O)C2CCN(CC3CC4c5ccccc5Cc5ccc(F)cc5C4O3)CC2)CC1 (stereo not shown) [Compound 203] | 3.63 nM | 3.09 nM | 16.6 nM | 4.47 µM |  |  |  | 
Fc1ccc2c(c1)[C@@H]1O[C@@H](CN3CCN(CC4CCCCC4)CC3)C[C@@H]1c1ccccc1C2 [Compound 69] | 41.7 nM | 79.4 nM | 7.24 nM | > 10 µM |  |  |  | 
COc1ccc(C)c(NC(=O)C2CCN(CC3CC4c5ccccc5Cc5ccc(F)cc5C4O3)CC2)c1 (stereo not shown) [Compound 191] | < 10 nM | 3.47 nM | 11.7 nM | 9.12 µM |  |  |  | 
CCNC(=O)N1CCN(C[C@H]2C[C@@H]3c4ccccc4Cc4ccc(F)cc4[C@@H]3O2)CC1 [Compound 86] | 0.832 nM | 3.02 nM | 55 nM | 7.08 µM |  |  |  | 
COc1cc2c(cc1OC)CN(C[C@H]1C[C@@H]3c4ccccc4Cc4ccc(F)cc4[C@@H]3O1)CC2 [Compound 276] | 1.02 nM | 1.15 nM | 17 nM | > 10 µM |  |  |  | 
Fc1ccc2c(c1)C1OC(CN3CCN(c4nc5ccccc5o4)CC3)CC1c1ccccc1C2 (stereo not shown) [Compound 126] | 8.91 nM | 79.4 nM | 214 nM | 9.77 µM |  |  |  | 
CSc1nccc(N2CCN(CC3CC4c5ccccc5Cc5ccc(F)cc5C4O3)CC2)n1 (stereo not shown) [Compound 124] | 8.91 nM | 30.9 nM | 47.9 nM | 2.29 µM |  |  |  | 
O=S(=O)(c1ccccc1)n1cccc1CN1CCN(CC2CC3c4ccccc4Cc4ccc(F)cc4C3O2)CC1 (stereo not shown) [Compound 68] | 67.6 nM | 117 nM | 91.2 nM | 2.4 µM |  |  |  | 
Fc1cccc(OCC2CCN(CC3CC4c5ccccc5Cc5ccc(F)cc5C4O3)C2)c1 (stereo not shown) [Compound 27] | 8.71 nM | 4.27 nM | 3.89 nM | 5.01 µM |  |  |  | 
OCC1CN(CC2CC3c4ccccc4Cc4ccc(F)cc4C3O2)CCO1 (mixture of isomers) [Compound 128, [2R-(2aα, 3aα, 12bβ)]-(3′RS)-[4-(11-fluoro-3,3a,8,12b-tetrahydro-2H-1-oxa-dibenzo[e,h]azulen-2-ylmethyl)-morpholin-2-yl]-methanol.oxalate (1:1)] | 4.37 nM | 11.7 nM | 18.6 nM | 2.63 µM |  |  |  | 
O=C(C1CCCC1)N1CCN(CC2CC3c4ccccc4Cc4ccc(F)cc4C3O2)CC1 (stereo not shown) [Compound 79] | 4.79 nM | 51.3 nM | 44.7 nM | > 10 µM |  |  |  | 
COC(=O)c1ccc(OC2CCN(CC3CC4c5ccccc5Cc5ccc(F)cc5C4O3)C2)cc1 (stereo not shown) [Compound 30] | 10.5 nM | 5.75 nM | 16.2 nM | > 10 µM |  |  |  | 
Fc1ccc2c(c1)C1OC(CN3CCCC(C4=NCCN4)C3)CC1c1ccccc1C2 (stereo not shown) [Compound 171] | 28.2 nM | 18.2 nM | 282 nM | 1.41 µM |  |  |  | 
CCCCNC(=S)N1CCN(C[C@H]2C[C@@H]3c4ccccc4Cc4ccc(F)cc4[C@@H]3O2)CC1 [Compound 108] | 4.57 nM | 16.2 nM | 29.5 nM | 3.24 µM |  |  |  | 
Cc1ccc(S(=O)(=O)N2CCN(CC3CC4c5ccccc5Cc5ccc(F)cc5C4O3)CC2)cc1 (stereo not shown) [Compound 107] | 83.2 nM | 331 nM | 81.3 nM | > 10 µM |  |  |  | 
CS(=O)(=O)N1CCN(CC2CC3c4ccccc4Cc4ccc(F)cc4C3O2)CC1 (stereo not shown) [Compound 102] | 4.68 nM | 12.6 nM | 10.7 nM | > 10 µM |  |  |  | 
O=C(NCc1ccc(F)cc1)N1CCN(CC2CC3c4ccccc4Cc4ccc(F)cc4C3O2)CC1 (stereo not shown) [Compound 99] | 3.16 nM | 8.13 nM | 11.5 nM | > 10 µM |  |  |  | 
CC(=Cc1ccccc1)CN1CCN(CC2CC3c4ccccc4Cc4ccc(F)cc4C3O2)CC1 (stereo not shown) [Compound 49] | 33.9 nM | 120 nM | 33.1 nM | 2.57 µM |  |  |  | 
NCCN1CCN(CC2CC3c4ccccc4Cc4ccc(F)cc4C3O2)CC1 (stereo not shown) [Compound 47] | 6.46 nM | 34.7 nM | 10 nM | > 10 µM |  |  |  | 
Fc1ccc2c(c1)C1OC(CN3CCN(C(=S)NCc4ccccc4)CC3)CC1c1ccccc1C2 (stereo not shown) [Compound 113] | 11 nM | 24 nM | 50.1 nM | 2.4 µM |  |  |  | 
O=C(OCc1ccccc1)N1CCN(CC2CC3c4ccccc4Cc4ccc(F)cc4C3O2)CC1 (stereo not shown) [Compound 85] | 66.1 nM | 63.1 nM |  | > 10 µM |  |  |  | 
